Results from PMC13267113 (npj Drug Discovery, 2025).
In brackets after ≈: the same amount, converted by molar mass.

How the values were obtained:
Mouse plasma stability = assay type: in vitro ADME; conditions: read-out: Mouse plasma t1/2
HCT116 (human, colon) = assay: MTT cytotoxicity HCT116; assay type: cell-based; conditions: HCT-116, 72 h, n = 3
Experimental: (§1) All cell types were cultivated at 37 °C with 5% CO2. HepG2, HEK293, HCT116, CHO-K1, HeLa-CCL-2 and Huh-7.5 were purchased from ATCC. The respective cell media (Gibco) were supplemented with 10% FBS (Gibco) before usage. Cells were used between passages #5 and #30. To obtain biological repeats, cells were split separately for at least two passages.
(§2) Cells were washed with PBS and 0.5 mL trypsin was added. Afterwards, cells were incubated for 5 min before adding 10 mL medium containing 10% FBS. Per well, 120 µL cell suspension (5 × 10^4 cells/mL) was seeded in transparent 96-well cell bind plates and incubated for 2 h (37 °C, 5% CO2). A dilution series (1:3) of test compounds was prepared in respective media containing 10% FBS and added (60 µL) to the prepared cell plate. Cells were incubated for a further 72 h (37 °C, 5% CO2). Next, 20 µL MTT (5 mg/mL in PBS) was added to each well and incubated for 2 h (37 °C, 5% CO2). The wells were emptied and 100 µL isopropanol/10 N HCl (1000:4) per well was added.
(§3) The plates were analyzed by measuring the absorbance at 570 nm (plate reader Infinite® 200 Pro, Tecan). After normalization of data to the respective solvent controls, the calculated percentage of growth inhibition was plotted using GraphPad Prism software (version 10.0.2).

U-2 OS cells = assay: Mitochondrial superoxide formation (MitoSOX Red); assay type: cell-based, human; conditions: n = 6
Experimental: CYS was tested for its potential to induce oxidative stress in U-2 OS cells. Therefore, 120 µL of a cell suspension in McCoy’s (+10% FBS) containing 5 × 10^4 cells/mL were seeded into black 96-well imaging plate (BD Falcon). The plates were incubated for two days (37 °C, 5% CO2) until the cells reached approximately 70% confluence. Subsequently, the cells were washed with HBSS buffer, prior to adding CYS (20 µM) and the ROS inducer menadione (50 µM) as positive control, along with the staining solution (HBSS, calcium, magnesium, 5 µM MitoSOX red and 10 µg/mL Hoechst (Thermo)). To check for ROS protective properties, menadione (50 µM) was added directly to the staining solution. […] Afterwards, the cells were washed twice with HBSS. The cells were imaged using an automated fluorescence microscope (Celldiscoverer 7, Zeiss) (excitation: […]) to analyze the fluorescence intensity of the superoxide tracker MitoSOX red. The experiment was carried out with six replicates per condition. Quantification was done by high-content image analysis using the ZEN software (version 3.4, blue edition, Zeiss). Data presentation was done using GraphPad Prism (version 10.0.3) with ordinary one-way ANOVA including multiple comparisons to the control group for statistical analysis of the sample without ROS induction via menadione in the staining solution. Multiple unpaired t test was used to compare samples for ROS protective properties, which were incubated with menadione in the staining solution.

Huh-7.5 (human, liver) = assay: MTT cytotoxicity Huh-7.5; assay type: cell-based; conditions: Huh7.5, 72 h, n = 3
Experimental: as §1, §2, §3

[1] = biological target: T1, human DNA topoisomerase IIα (TOP2A) (Homo sapiens, UniProt P11388); assay: human topoisomerase II alpha decatenation assay; assay type: biochemical; conditions: n = 3, read-out: IC50 against TOP2A
T1 construct: purchased Inspiralis
T1 sequence (P11388 whole entry): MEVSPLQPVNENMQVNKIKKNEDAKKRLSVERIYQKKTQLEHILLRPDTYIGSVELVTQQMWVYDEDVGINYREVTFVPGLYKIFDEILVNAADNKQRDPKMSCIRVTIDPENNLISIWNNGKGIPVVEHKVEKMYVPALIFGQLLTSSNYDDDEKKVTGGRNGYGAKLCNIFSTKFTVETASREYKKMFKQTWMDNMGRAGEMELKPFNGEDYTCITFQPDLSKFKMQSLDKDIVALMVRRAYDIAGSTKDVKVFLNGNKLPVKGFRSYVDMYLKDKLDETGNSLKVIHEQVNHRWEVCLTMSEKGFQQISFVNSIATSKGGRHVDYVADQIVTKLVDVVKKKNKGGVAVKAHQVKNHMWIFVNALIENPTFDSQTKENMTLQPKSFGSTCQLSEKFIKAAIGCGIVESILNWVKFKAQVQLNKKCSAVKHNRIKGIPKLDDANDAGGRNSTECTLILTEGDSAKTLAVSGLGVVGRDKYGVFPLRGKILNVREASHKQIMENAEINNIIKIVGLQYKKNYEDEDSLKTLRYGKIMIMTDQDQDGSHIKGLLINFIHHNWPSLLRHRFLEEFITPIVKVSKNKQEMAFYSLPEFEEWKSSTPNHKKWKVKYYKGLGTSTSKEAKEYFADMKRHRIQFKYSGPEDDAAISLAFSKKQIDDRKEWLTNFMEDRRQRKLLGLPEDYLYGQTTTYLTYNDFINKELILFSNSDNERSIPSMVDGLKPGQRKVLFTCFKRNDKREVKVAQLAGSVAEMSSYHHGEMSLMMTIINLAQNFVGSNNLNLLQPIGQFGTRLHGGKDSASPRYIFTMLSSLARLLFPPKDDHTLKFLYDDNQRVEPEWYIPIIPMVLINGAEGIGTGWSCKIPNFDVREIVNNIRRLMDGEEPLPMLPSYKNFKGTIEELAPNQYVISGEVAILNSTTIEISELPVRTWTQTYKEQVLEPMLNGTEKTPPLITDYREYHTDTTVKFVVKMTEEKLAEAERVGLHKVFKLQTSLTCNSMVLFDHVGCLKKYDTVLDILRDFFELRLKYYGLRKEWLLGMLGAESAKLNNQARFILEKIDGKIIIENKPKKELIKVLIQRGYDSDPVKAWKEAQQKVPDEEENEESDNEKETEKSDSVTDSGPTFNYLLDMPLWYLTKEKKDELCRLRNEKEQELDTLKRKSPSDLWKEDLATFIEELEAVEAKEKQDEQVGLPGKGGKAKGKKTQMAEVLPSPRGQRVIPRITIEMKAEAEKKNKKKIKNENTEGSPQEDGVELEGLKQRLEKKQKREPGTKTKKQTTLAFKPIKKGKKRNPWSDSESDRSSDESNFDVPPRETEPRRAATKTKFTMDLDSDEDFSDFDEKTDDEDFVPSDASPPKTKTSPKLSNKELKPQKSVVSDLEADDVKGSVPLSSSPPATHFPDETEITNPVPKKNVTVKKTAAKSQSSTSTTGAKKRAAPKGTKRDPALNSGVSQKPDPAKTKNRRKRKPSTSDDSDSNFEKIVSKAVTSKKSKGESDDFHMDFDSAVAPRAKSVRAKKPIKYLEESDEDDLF
Experimental: Inhibition of topoisomerase activity was examined using the human topoisomerase II alpha decatenation assay kit (Inspiralis) as indicated by the manufacturer. Briefly, a compound dilution series was prepared in DMSO. Water, dilution buffer, assay buffer, plasmid and enzyme were mixed with the compound solution and incubated at 37 °C for 30 min. A positive control (100% activity) was prepared without the compound, and a negative control (0% activity) was prepared without the compound and the enzyme. The reaction was stopped by adding gSTEB-buffer and chloroform/isoamylalcohol (24:1 v/v). The samples were vortexed and centrifuged before running gel electrophoresis. The gel was stained with ethidium bromide and imaged using a Fusion Fx gel imager (Vilber Lourmat). Subsequent analysis was done using ImageJ and GraphPad Prism (Version 10.0.2).

HeLa (human, cervix) = assay: MTT cytotoxicity HeLa; assay type: cell-based; conditions: 72 h, n = 3
Experimental: as §1, §2, §3

physchem = conditions: zebrafish embryo incubation medium, aqueous buffer, kinetic from dmso stock
[2] = Mouse plasma protein binding; assay type: in vitro ADME; conditions: read-out: Mouse PPB (converted)
HepG2 (human, liver) = assay: MTT cytotoxicity HepG2; assay type: cell-based; conditions: 72 h, n = 3
Experimental: as §1, §2, §3

[3] = Metabolic stability in mouse hepatocytes; assay type: in vitro ADME
Experimental: For the evaluation of combined phase I and phase II metabolic stability, the compound (1 μM) was incubated with 0.25 × 10^6 cells/mL of pooled mouse hepatocytes (Xenotech, Kansas City, USA). Cells were thawed in Leibovitz’s L-15 medium without phenol red (ThermoFisher Scientific, Waltham, USA). Briefly, cells were transferred into 50 mL of medium, followed by centrifugation at 55 g for 6 min. Supernatant was discarded, and the cell count was determined after gently resuspending the cell pellet in 1mL of medium. Hepatocytes were diluted to 0.5 × 10^6 cells/mL and incubated at 37 °C, 700 rpm for 10 min, to achieve the desired final cell count after addition of an equal volume of test compounds in medium, leading to a final test concentration of 1 µM at 1% DMSO. […] For the determination of metabolism in the presence of cobicistat, this drug was added together with test compounds in the desired concentration range. The metabolic stability of testosterone, verapamil, ketoconazole and 7-hydroxycoumarine were determined in parallel to confirm the enzymatic activity of mouse hepatocytes. […] Concentration of the remaining test compound at the different time points was analyzed by HPLC-MS/MS (Vanquish Flex coupled to a TSQ Altis Plus, Thermo Fisher, Dreieich, Germany) and used to determine half-life (t1/2). Intrinsic clearance was calculated as follows:2 CLintµL/min×10^6cells=Incubation volumeµL×ln(2)/Cells in incubation mixture[10^6]×t1/2
For metabolite identification studies, test compounds were incubated at 10 µM final concentration and samples were analyzed using HPLC-HRMS (Ultimate 3000 coupled to a Q Exactive Focus, Thermo Fisher, Dreieich, Germany). […] Blank samples using DMSO were run in parallel for background subtraction. Sample processing for metabolite identification was performed using Compound Discoverer 3.2 (Thermo Fisher, Dreieich, Germany). Metabolites were identified based on mass shifts and feasibility of the metabolic reaction, also in view of MS peak intensities over time.

HEK293 (human, kidney) = assay: MTT cytotoxicity HEK293; assay type: cell-based; conditions: HEK293, MTT, 72 h, n = 3, read-out: IC50 HEK293 (human, kidney)
Experimental: as §1, §2, §3

[4] = Metabolic stability in mouse liver microsomes; assay type: in vitro ADME; conditions: pooled mouse liver microsomes, 0.5 mg/mL microsomes, NADPH
Experimental: The metabolic stability of testosterone, verapamil and ketoconazole was determined in parallel to confirm the enzymatic activity of mouse liver microsomes. For combination experiments, cobicistat was added to the incubation mixture together with test compounds. […] Concentration of the remaining test compound at the different time points was analyzed by HPLC-MS/MS (Vanquish Flex coupled to a TSQ Altis Plus, Thermo Fisher, Dreieich, Germany) and used to determine half-life (t1/2).

For `CO[C@H](C(N)=O)[C@H](NC(=O)c1ccc(NC(=O)c2ccc(C#N)cc2)cc1)C(=O)Nc1ccc(C(=O)Nc2ccc(C(=O)Nc3ccc(C(=O)O)cc3)c(O)c2OC(C)C)cc1` [CN-861-2], the half-life (Mouse plasma stability) was greater than 4 h, the IC50 (HCT116 (human, colon)) was greater than 20 µM and the “basal superoxide radical levels vs DMSO control” value (U-2 OS cells; 20 µM, MitoSOX Red, no menadione) was “decrease of superoxide radical levels”. The “menadione-induced superoxide formation on co-treatment” value (U-2 OS cells; CYS 20 µM + menadione 50 µM) was “slight yet statistically significant increase in superoxide production”, the IC50 (Huh-7.5 (human, liver)) was greater than 20 µM and the IC50 [1] was 6.26 ± 4.69 µM. For the same molecule, the IC50 (HeLa (human, cervix)) was greater than 37 µM, the solubility (physchem) was 20 µM (≈ 16.8 µg/mL) and the fraction unbound [2] was 0.0037. For the same molecule, the IC50 (HepG2 (human, liver)) was greater than 20 µM, the “stable in murine hepatocytes for” value [3] was greater than 3 h and the hepatocyte CLint at 1 µM ([3]; mouse, pooled mouse hepatocytes, 1 μM, 0.25 × 10^6 cells/mL) was less than 5.1 µL/min/1e6 cells. The half-life at 1 µM ([3]; mouse, pooled mouse hepatocytes, 1 μM, 0.25 × 10^6 cells/mL, read-out: Mouse Hepatocytes t1/2) was greater than 3 h, the IC50 (HEK293 (human, kidney)) was greater than 20 µM and the microsomal CLint at 1 μM ([4]; read-out: MLM Clint) was less than 11.6 µL/min/mg. The half-life at 1 µM ([4]; read-out: MLM t1/2) was greater than 2 h.
